Publication PMC12136037, “Type II kinase inhibitors that target Parkinson’s disease–associated LRRK2” (Science Advances, 2025)

What follows are compounds tested against T1, LRRK2^KW (Homo sapiens, UniProt Q5S007) (assay: DSF thermal stabilization of LRRK2^KW). Conditions: screen of 31 type-II inhibitors, Table S1.
T1 construct: LRRK2 R1847 to E2527; His6-Z-tag (TEV cleavable) (N, cleaved yes); host or cells: Sf9 insect cells (baculovirus)
T1 sequence (Q5S007 1847-2527): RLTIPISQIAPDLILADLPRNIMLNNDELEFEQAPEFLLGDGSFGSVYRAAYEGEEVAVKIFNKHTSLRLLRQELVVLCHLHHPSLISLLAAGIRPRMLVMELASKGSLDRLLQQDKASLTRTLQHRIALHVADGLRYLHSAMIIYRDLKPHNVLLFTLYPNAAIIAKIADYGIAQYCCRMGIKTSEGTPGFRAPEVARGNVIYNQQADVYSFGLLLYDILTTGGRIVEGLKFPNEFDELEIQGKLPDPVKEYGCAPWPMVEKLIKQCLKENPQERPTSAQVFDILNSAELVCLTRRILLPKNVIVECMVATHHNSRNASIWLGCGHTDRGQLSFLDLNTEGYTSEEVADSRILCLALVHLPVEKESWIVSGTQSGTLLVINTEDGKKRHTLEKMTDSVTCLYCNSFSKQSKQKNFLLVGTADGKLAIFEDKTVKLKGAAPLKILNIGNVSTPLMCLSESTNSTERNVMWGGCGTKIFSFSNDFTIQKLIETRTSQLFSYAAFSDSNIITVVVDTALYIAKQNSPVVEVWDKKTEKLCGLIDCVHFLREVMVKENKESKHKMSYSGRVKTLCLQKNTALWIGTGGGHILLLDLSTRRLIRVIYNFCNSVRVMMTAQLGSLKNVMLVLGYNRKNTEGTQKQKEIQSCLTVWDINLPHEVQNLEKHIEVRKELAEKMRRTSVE
Assay type: binding
Protocol: To characterize binding between small molecules and LRRK2^KW, induced thermal stabilization was measured by DSF according to previously established protocols ([47]). In brief, LRRK2^KW was diluted to 4 μM in 20 mM Hepes (pH 7.4), 150 mM NaCl, 0.5 mM TCEP, 0.5% glycerol, 20 μM GDP, and 2.5 mM MgCl2, and SYPRO Orange was added (1:1000, MilliporeSigma). Inhibitor (10 μM) to be tested was added to a final sample volume of 20 μl per well of a 96-well plate (white, Starlab). […] The fluorescence was plotted against the temperature, and the melting point (Tm) was determined as the minimum of the first derivative relative to the control.

SMILES	dTm LRRK2(KW) [K]
CCN1CCN(Cc2ccc(NC(=O)c3ccc(C)c(NC(=O)c4cncc(-c5cccs5)c4)c3)cc2C(F)(F)F)CC1 [ALW-II-41-27, reference compound]	-0.5
Cc1csc(-c2nnc(Nc3ccc(Oc4ncccc4-c4ccnc(N)n4)cc3)c3ccccc23)c1 [AMG 900, reference compound]	4.5
CCN1CCN(Cc2ccc(NC(=O)Nc3ccc(Oc4cc(NC)ncn4)cc3)cc2C(F)(F)F)CC1 [AST-487, reference compound]	10
Cc1ccc(NC(=O)c2cccc(C(C)(C)C#N)c2)cc1Nc1ccc2ncn(C)c(=O)c2c1 [AZ 628, reference compound]	-0.5
N#CC1(c2ccc(NC(=O)c3cccnc3NCc3ccncc3)cc2)CCCC1 [Apatinib, reference compound]	-1
CNC(=O)c1ccccc1Sc1ccc2c(/C=C/c3ccccn3)n[nH]c2c1 [Axitinib, reference compound]	7.5
Cc1ccc(-n2nc(C(C)(C)C)cc2NC(=O)Nc2ccc(OCCN3CCOCC3)c3ccccc23)cc1 [BIRB-796, reference compound]	0
CCOc1ccn(-c2ccc(F)cc2)c(=O)c1C(=O)Nc1ccc(Oc2ccnc(N)c2Cl)c(F)c1 [BMS 777607, reference compound]	6.8
COc1cc2nccc(Oc3ccc(NC(=O)C4(C(=O)Nc5ccc(F)cc5)CC4)cc3)c2cc1OC [Cabozantinib, reference compound]	7.5
CN1CCN(C2CCN(C(=O)Nc3cc(Oc4ccc(NC(=O)C5(C(=O)Nc6ccc(F)cc6)CC5)c(F)c4)ccn3)CC2)CC1 [Golvatinib, reference compound]	0.5
Cc1ccc(NC(=O)c2ccc(CN3CCN(C)CC3)cc2)cc1Nc1nccc(-c2cccnc2)n1 [Imatinib, reference compound]	0
COc1cc(Oc2ccnc3cc(OC)c(OC)cc23)ccc1NC(=O)NC(C)c1nccs1 (centres unmarked) [KI20227, reference compound]	3
Cc1ccc(F)c(NC(=O)Nc2ccc(-c3cccc4[nH]nc(N)c34)cc2)c1 [Linifanib, reference compound]	5.8
Cc1ccc(NC(=O)c2ccc(CN3CCN(C)CC3)cc2)cc1Nc1nc(-c2cccnc2)cs1 [Masitinib, reference compound]	0
CC1(C)CNc2cc(NC(=O)c3cccnc3NCc3ccncc3)ccc21 [Motesanib, reference compound]	-0.5
Cc1ccc(C(=O)Nc2cccc(C(F)(F)F)c2)cc1Nc1nc(-c2cccnc2)nc2c1cnn2C [NVP-BHG712, reference compound]	-0.5
Cc1cn(-c2cc(NC(=O)c3ccc(C)c(Nc4nccc(-c5cccnc5)n4)c3)cc(C(F)(F)F)c2)cn1 [Nilotinib, reference compound]	-2.5
COC(=O)c1ccc2c(c1)NC(=O)/C2=C(\Nc1ccc(N(C)C(=O)CN2CCN(C)CC2)cc1)c1ccccc1 [Nintedanib, reference compound]	5
O=C(Nc1ccc(OC(F)(F)F)cc1)c1sccc1NCc1ccnc2ccccc12 [OSI-930, reference compound]	0
Cc1ccc(-n2nc(C(C)(C)C)cc2NC(=O)Nc2cc(COc3cccnc3)[nH]n2)cc1 [PF-4618433, reference compound]	11
FC(F)(F)c1ccc(CNc2ccc(Cc3c[nH]c4ncc(Cl)cc34)cn2)cn1 [Pexidartinib, reference compound]	6.8
CC(C)(C)c1cc(NC(=O)Nc2ccc(-c3cn4c(n3)sc3cc(OCCN5CCOCC5)ccc34)cc2)no1 [Quizartinib, reference compound]	3.5
CNC(=O)c1cc(Oc2ccc(NC(=O)Nc3ccc(Cl)c(C(F)(F)F)c3)c(F)c2)ccn1 [Regorafinib, reference compound]	5.5
COc1cc2nccc(Oc3ccc(NC(=O)Nc4cc(C)on4)c(Cl)c3)c2cc1OC [Tivozanib (AV-951), reference compound]	11.5
Cc1ccc(NC(=O)c2cccc(N(C)C)c2)cc1NC(=O)c1ccc(O)cc1 [ZM336372, reference compound]	-1
COc1cc2c(Nc3ccc(NC(=O)c4ccccc4)cc3)ncnc2cc1OCCCN1CCOCC1 [ZM447439, reference compound]	6.5
